Data taken from patent US12091426B2, “Bifunctional degraders of hematopoietic progenitor kinase and therapeutic uses thereof” (Nurix Therapeutics, Inc., priority 2021, dated 2024).

Molecular target: T1, HPK1 (Homo sapiens, UniProt Q92918)
T1 construct: A HiBiT tag was introduced by CRISPR on the N terminus of HPK1 in Jurkat cells; host or cells: Jurkat cells (ATCC TIB-152), monoclonal line with CRISPR knock-in of HiBiT at the endogenous HPK1 locus
Experiment: HPK1 Cellular HiBit Degradation Assay
Assay type: cell-based
Details: HiBiT HPK1 Jurkat cells, 24 hrs; for DC50: concentration at which 50% of HPK1 was remaining, read-out: DC50 Category; for Dmax: Jurkat, read-out: Dmax Category
How it was run: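 HiBiT-HPK1 Jurkat (CRISPR, N-term tag), 3×10^4 cells/well, RPMI 1640 + 10% FBS; CTMs 10 uM–0.1 nM, 11 pts; 24 hrs, 37° C/5% CO2; lytic HiBiT luminescence; % remaining vs DMSO, parental background subtracted; 4-parameter fit → DC50, Dmax.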

[1] = maximum degradation vs DMSO vehicle control

T1 sequence (Q92918 whole entry): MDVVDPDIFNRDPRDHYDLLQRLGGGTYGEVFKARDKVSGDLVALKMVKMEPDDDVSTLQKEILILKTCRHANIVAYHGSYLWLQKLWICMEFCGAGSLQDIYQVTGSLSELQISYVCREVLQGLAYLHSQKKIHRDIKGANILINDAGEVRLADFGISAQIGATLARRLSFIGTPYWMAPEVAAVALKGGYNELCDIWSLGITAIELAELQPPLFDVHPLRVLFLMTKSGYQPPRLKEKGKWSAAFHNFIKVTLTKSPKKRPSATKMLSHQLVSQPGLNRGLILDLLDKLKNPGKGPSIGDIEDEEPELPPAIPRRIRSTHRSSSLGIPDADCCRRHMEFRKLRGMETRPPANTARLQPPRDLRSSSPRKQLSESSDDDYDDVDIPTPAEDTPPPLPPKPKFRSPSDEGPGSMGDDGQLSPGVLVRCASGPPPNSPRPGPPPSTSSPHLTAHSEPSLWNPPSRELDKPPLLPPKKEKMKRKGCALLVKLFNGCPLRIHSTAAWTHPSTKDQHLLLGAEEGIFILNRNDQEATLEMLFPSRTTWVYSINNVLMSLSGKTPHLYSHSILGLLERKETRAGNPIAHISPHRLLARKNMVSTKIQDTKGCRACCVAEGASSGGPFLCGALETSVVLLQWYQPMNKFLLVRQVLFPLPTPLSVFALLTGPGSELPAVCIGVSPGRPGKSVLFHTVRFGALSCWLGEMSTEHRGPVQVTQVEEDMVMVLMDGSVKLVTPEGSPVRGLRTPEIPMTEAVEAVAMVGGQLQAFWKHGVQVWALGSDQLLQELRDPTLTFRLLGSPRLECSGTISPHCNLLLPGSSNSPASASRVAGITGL

Structure (SMILES)	DC50	Dmax [1]	Dmax Category [1]
CC(C)n1cnc2cc(-c3ccc4c(c3)N([C@H]3C[C@@H](N5CCCCC5)C3)C(=O)C43CCN(C(=O)[C@H]4CC[C@H](C(=O)N5CCC(N(C)c6ccc(C7CCC(=O)NC7=O)cc6)CC5)CC4)CC3)nc(Nc3ccncc3F)c21 (mixture of isomers) [Example 136, (3RS)-3-{4-[methyl({1-[(1R,4R)-4-[(6-{4-[(3-fluoropyridin-4-yl)amino]-3-(propan-2-yl)-3H-imidazo[4,5-c]pyridin-6-yl}-2-oxo-1-[(1S,3S)-3-(piperidin-1-yl)cyclobutyl]-1,2-dihydrospiro[indole-3,4′-piperidin]-11′-yl)carbonyl]cyclohexanecarbonyl]piperidin-4-yl})amino]phenyl}piperidine-2,6-dione]	< 100 nM	70 to 85%	
CC(C)n1cnc2cc(-c3ccc4c(c3)N([C@H]3C[C@@H](N5CCCCC5)C3)C(=O)C43CCN(C(=O)C4(C)CCN(C(=O)C5CCN(c6ccc(C7CCC(=O)NC7=O)cn6)CC5)CC4)CC3)nc(Nc3ccccc3F)c21 (mixture of isomers) [Example 114, (3RS)-3-[6-(4-{4-[(6-{4-[(2-fluorophenyl)amino]-3-(propan-2-yl)-3H-imidazo[4,5-c]pyridin-6-yl}-2-oxo-1-[(1S,3S)-3-(piperidin-1-yl)cyclobutyl]-1,2-dihydrospiro[indole-3,4′-piperidin]-1′-yl)carbonyl]-4-methylpiperidine-1-carbonyl}piperidin-1-yl)pyridin-3-yl]piperidine-2,6-dione]	< 100 nM	70 to 85%	
CC(C)n1cnc2cc(-c3ccc4c(c3)N([C@H]3C[C@@H](N5CCCCC5)C3)C(=O)C43CCN(C(=O)[C@@H]4CCN(C(=O)C5CCN(c6ccc(C7CCC(=O)NC7=O)cn6)CC5)C4)CC3)nc(Nc3ccccc3F)c21 (stereo partly drawn) [Example 24, 3-(6-(4-((R)-3-(6-(4-((2-fluorophenyl)amino)-3-isopropyl-3H-imidazo[4,5-c]pyridin-6-yl)-2-oxo-1-((1s,3S)-3-(piperidin-1-yl)cyclobutyl)spiro[indoline-3,4′-piperidine]-1′-carbonyl)pyrrolidine-1-carbonyl)piperidin-1-yl)pyridin-3-yl)piperidine-2,6-dione]	< 100 nM	> 85%	
CC(C)n1cnc2cc(-c3ccc4c(c3)N([C@H]3C[C@@H](N5CCCCC5)C3)C(=O)C43CCN(C(=O)C4(C)CCN(C(=O)C5CCN(c6ccc([C@H]7CCC(=O)NC7=O)cn6)CC5)CC4)CC3)nc(NC3CC3)c21 (single isomer, unassigned) [Example 212]	< 100 nM		B (B: >70%-<85%)
CC(C)n1cnc2cc(-c3ccc4c(c3)N([C@H]3C[C@@H](N5CCCCC5)C3)C(=O)C43CCN(C(=O)C4CCN(C(=O)[C@H]5CC[C@H](C(=O)N6CCc7cc(C8CCC(=O)NC8=O)ccc7C6)CC5)CC4)CC3)nc(Nc3ccccc3F)c21 (stereo partly drawn) [Example 48, 3-(2-((1R,4R)-4-(4-(6-(4-((2-fluorophenyl)amino)-3-isopropyl-3H-imidazo[4,5-c]pyridin-6-yl)-2-oxo-1-((1S,3S)-3-(piperidin-1-yl)cyclobutyl)spiro[indoline-3,4′-piperidine]-1′-carbonyl)piperidine-1-carbonyl)cyclohexane-1-carbonyl)-1,2,3,4-tetrahydroisoquinolin-6-yl)piperidine-2,6-dione]	< 100 nM	70 to 85%	

Now from value to compound, other results behind:

DC50	Dmax [1]	Structure (SMILES)	Dmax Category [1]
100 to 500 nM	70 to 85%	CC(C)n1cnc2cc(-c3ccc4c(c3)N([C@H]3C[C@@H](N5CCC[C@@H](F)C5)C3)C(=O)C43CCN(C(=O)C4(C)CCN(C(=O)C5CCN(c6ccc(C7CCC(=O)NC7=O)cn6)CC5)CC4)CC3)nc(NC3CC3)c21 (mixture of isomers) [Example 219, (3RS)-3-(6-{4-[4-({6-[4-(cyclopropylamino)-3-(propan-2-yl)-3H-imidazo[4,5-c]pyridin-6-yl]-2-oxo-1-[(1S,3S)-3-[(3R)-3-fluoropiperidin-1-yl]cyclobutyl]-1,2-dihydrospiro[indole-3,4′-piperidin]-1′-yl}carbonyl)-4-methylpiperidine-1-carbonyl]piperidin-1-yl}pyridin-3-yl)piperidine-2,6-dione]	
< 100 nM	70 to 85%	CC(C)n1cnc2cc(-c3ccc4c(c3)N([C@H]3C[C@@H](N5CCCCC5)C3)C(=O)C43CCN(C(=O)[C@H]4[C@@H]5CN(C(=O)C6CCN(c7ccc(C8CCC(=O)NC8=O)cn7)CC6)C[C@@H]54)CC3)nc(NC3CC3)c21 (mixture of isomers) [Example 260, (3RS)-3-(6-{4-[(1R,5S,6S)-6-({6-[4-(cyclopropylamino)-3-(propan-2-yl)-3H-imidazo[4,5-c]pyridin-6-yl]-2-oxo-1-[(1S,3S)-3-(piperidin-1-yl)cyclobutyl]-1,2-dihydrospiro[indole-3,4′-piperidin]-1′-yl}carbonyl)-3-azabicyclo[3.1.0]hexane-3-carbonyl]piperidin-1-yl}pyridin-3-yl)piperidine-2,6-dione]	
< 100 nM	70 to 85%	CC(C)n1cnc2cc(-c3ccc4c(c3)N([C@H]3C[C@@H](N5CCCCC5)C3)C(=O)C43CCN(C(=O)[C@H]4C[C@H]5C[C@@H]4CN5C(=O)C4CCN(c5ccc(C6CCC(=O)NC6=O)cn5)CC4)CC3)nc(NC3CC3)c21 (mixture of isomers) [Example 261, (3RS)-3-(6-{4-[(1R,4S,5S)-5-({6-[4-(cyclopropylamino)-3-(propan-2-yl)-3H-imidazo[4,5-c]pyridin-6-yl]-2-oxo-1-[(1S,3S)-3-(piperidin-1-yl)cyclobutyl]-1,2-dihydrospiro[indole-3,4′-piperidin]-1′-yl}carbonyl)-2-azabicyclo[2.2.1]heptane-2-carbonyl]piperidin-1-yl}pyridin-3-yl)piperidine-2,6-dione]	
100 to 500 nM	50 to 70%	CC(C)n1cnc2cc(-c3ccc4c(c3)N([C@H]3C[C@@H](N5CCC[C@@H](F)C5)C3)C(=O)C43CCN(C(=O)C4(C)CCN(C(=O)C5CCN(c6ccc(C7CCC(=O)NC7=O)cc6)CC5)CC4)CC3)nc(NC3CC3)c21 (mixture of isomers) [Example 199, (3RS)-3-(4-{4-[4-({6-[4-(cyclopropylamino)-3-(propan-2-yl)-3H-imidazo[4,5-c]pyridin-6-yl]-2-oxo-1-[(1S,3S)-3-[(3R)-3-fluoropiperidin-1-yl]cyclobutyl]-1,2-dihydrospiro[indole-3,4′-piperidin]-1′-yl}carbonyl)-4-methylpiperidine-1-carbonyl]piperidin-1-yl}phenyl)piperidine-2,6-dione]	
< 100 nM	70 to 85%	CC(C)n1cnc2cc(-c3ccc4c(c3)N([C@H]3C[C@@H](N5CCCCC5)C3)C(=O)C43CCN(C(=O)C4CCN(C(=O)C5CCN(c6ccc(C7CCC(=O)NC7=O)cn6)CC5)C5(CC5)C4)CC3)nc(NC3CC3)c21 (mixture of isomers) [Example 269, (3RS)-3-(6-{4-[7-({6-[4-(cyclopropylamino)-3-(propan-2-yl)-3H-imidazo[4,5-c]pyridin-6-yl]-2-oxo-1-[(1S,3S)-3-(piperidin-1-yl)cyclobutyl]-1,2-dihydrospiro[indole-3,4′-piperidin]-1′-yl}carbonyl)-4-azaspiro[2.5]Octane-4-carbonyl]piperidin-1-yl}pyridin-3-yl)piperidine-2,6-dione]	
< 100 nM	70 to 85%	CC(C)n1cnc2cc(-c3ccc4c(c3)N([C@H]3C[C@@H](N5CC6CCC(C6)C5)C3)C(=O)C43CCN(C(=O)C4(C)CCN(C(=O)CC5CCN(c6ccc(C7CCC(=O)NC7=O)cn6)CC5)CC4)CC3)nc(NC3CC3)c21 (mixture of isomers) [Example 223, (3RS)-3-[6-(4-{2-[4-({6-[4-(cyclopropylamino)-3-(propan-2-yl)-3H-imidazo[4,5-c]pyridin-6-yl]-2-oxo-1-[(1S,3S)-3-{3-azabicyclo[3.2.1]octan-3-yl}cyclobutyl]-1,2-dihydrospiro[indole-3,4′-piperidin]-1′-yl}carbonyl)-4-methylpiperidin-1-yl]-2-oxoethyl}piperidin-1-yl)pyridin-3-yl]piperidine-2,6-dione]	
< 100 nM	50 to 70%	COC1CN(C(=O)C2CCN(c3ccc(C4CCC(=O)NC4=O)cc3)CC2)CCC1C(=O)N1CCC2(CC1)C(=O)N([C@H]1C[C@@H](N3CCCCC3)C1)c1cc(-c3cc4ncn(C(C)C)c4c(NC4CC4)n3)ccc12 (mixture of isomers) [Example 257, (3RS)-3-(4-{4-[4-({6-[4-(cyclopropylamino)-3-(propan-2-yl)-3H-imidazo[4,5-c]pyridin-6-yl]-2-oxo-1-[(1S,3S)-3-(piperidin-1-yl)cyclobutyl]-1,2-dihydrospiro[indole-3,4′-piperidin]-1′-yl}carbonyl)-3-methoxypiperidine-1-carbonyl]piperidin-1-yl}phenyl)piperidine-2,6-dione]	
< 100 nM	70 to 85%	CC(C)n1cnc2cc(-c3ccc4c(c3)N([C@H]3C[C@@H](N5CCCCC5)C3)C(=O)C43CCN(C(=O)C4CN(C(=O)C5CCN(c6ccc(C7CCC(=O)NC7=O)cn6)CC5)CC(C)(C)C4)CC3)nc(NC3CC3)c21 (mixture of isomers) [Example 250, (3RS)-3-(6-{4-[5-({6-[4-(cyclopropylamino)-3-(propan-2-yl)-3H-imidazo[4,5-c]pyridin-6-yl]-2-oxo-1-[(1S,3S)-3-(piperidin-1-yl)cyclobutyl]-1,2-dihydrospiro[indole-3,4′-piperidin]-1′-yl}carbonyl)-3,3-dimethylpiperidine-1-carbonyl]piperidin-1-yl}pyridin-3-yl)piperidine-2,6-dione]	
